How the values were obtained:
[1] = molecular target: Serine/threonine-protein kinase Chk2 (Homo sapiens) (UniProt O96017); conditions: Compound concentration 1000.0 nM
[2] = molecular target: Tyrosine-protein kinase ABL2 (Homo sapiens) (UniProt P42684); conditions: Compound concentration 1000.0 nM
[3] = system: Tyrosine-protein kinase ABL1 (Homo sapiens), P00519 [H396P]; conditions: Compound concentration 1000.0 nM
[4] = molecular target: Serine/threonine-protein kinase PLK3 (Homo sapiens) (UniProt Q9H4B4); conditions: Compound concentration 1000.0 nM
Sequence of Serine/threonine-protein kinase PLK3 (Homo sapiens) (Q9H4B4 whole entry, looked up): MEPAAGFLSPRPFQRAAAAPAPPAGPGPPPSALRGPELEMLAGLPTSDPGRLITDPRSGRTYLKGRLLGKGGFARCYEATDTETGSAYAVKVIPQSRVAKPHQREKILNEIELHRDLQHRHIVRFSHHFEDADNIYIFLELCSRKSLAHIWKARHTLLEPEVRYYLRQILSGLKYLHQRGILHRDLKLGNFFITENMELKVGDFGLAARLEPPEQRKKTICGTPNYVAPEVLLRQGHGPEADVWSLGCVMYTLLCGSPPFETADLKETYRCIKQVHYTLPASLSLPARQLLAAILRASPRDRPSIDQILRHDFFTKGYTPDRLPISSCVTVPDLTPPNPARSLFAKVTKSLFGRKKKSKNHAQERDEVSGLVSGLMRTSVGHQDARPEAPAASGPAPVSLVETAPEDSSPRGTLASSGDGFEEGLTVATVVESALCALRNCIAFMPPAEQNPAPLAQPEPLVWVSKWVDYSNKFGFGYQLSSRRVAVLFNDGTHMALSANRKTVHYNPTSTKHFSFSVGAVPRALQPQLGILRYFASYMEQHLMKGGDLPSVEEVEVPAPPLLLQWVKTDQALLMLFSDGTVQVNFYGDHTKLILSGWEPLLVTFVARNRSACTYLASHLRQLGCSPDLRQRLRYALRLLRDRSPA

[5] = molecular target: SRSF protein kinase 2 (Homo sapiens) (UniProt P78362); conditions: Compound concentration 1000.0 nM
Sequence of SRSF protein kinase 2 (Homo sapiens) (P78362 whole entry, looked up): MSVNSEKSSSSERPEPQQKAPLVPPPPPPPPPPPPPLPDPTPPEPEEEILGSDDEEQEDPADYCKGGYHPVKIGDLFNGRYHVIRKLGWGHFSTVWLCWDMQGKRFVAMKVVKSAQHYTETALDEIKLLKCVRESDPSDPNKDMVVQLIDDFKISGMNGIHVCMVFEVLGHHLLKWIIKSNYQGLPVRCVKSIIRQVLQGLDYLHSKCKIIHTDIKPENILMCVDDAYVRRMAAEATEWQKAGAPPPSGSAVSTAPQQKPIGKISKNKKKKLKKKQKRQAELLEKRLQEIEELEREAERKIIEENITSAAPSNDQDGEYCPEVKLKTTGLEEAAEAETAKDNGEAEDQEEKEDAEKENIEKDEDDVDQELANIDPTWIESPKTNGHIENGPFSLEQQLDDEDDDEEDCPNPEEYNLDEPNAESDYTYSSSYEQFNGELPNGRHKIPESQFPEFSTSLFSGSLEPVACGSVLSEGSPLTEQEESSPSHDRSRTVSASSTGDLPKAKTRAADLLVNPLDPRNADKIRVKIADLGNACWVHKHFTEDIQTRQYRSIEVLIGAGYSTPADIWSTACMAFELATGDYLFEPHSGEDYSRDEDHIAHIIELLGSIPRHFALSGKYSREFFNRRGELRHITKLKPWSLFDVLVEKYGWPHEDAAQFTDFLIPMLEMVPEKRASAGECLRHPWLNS

[6] = molecular target: G protein-coupled receptor kinase 4 (Homo sapiens) (UniProt P32298); conditions: Compound concentration 1000.0 nM
[7] = molecular target: Calcium/calmodulin-dependent protein kinase type 1D (Homo sapiens) (UniProt Q8IU85); conditions: Compound concentration 1000.0 nM
[8] = molecular target: Ribosomal protein S6 kinase alpha-5 (Homo sapiens) (UniProt O75582); conditions: Compound concentration 1000.0 nM
[9] = molecular target: Dual specificity mitogen-activated protein kinase kinase 7 (Homo sapiens) (UniProt O14733); conditions: Compound concentration 1000.0 nM
Sequence of Dual specificity mitogen-activated protein kinase kinase 7 (Homo sapiens) (O14733 whole entry): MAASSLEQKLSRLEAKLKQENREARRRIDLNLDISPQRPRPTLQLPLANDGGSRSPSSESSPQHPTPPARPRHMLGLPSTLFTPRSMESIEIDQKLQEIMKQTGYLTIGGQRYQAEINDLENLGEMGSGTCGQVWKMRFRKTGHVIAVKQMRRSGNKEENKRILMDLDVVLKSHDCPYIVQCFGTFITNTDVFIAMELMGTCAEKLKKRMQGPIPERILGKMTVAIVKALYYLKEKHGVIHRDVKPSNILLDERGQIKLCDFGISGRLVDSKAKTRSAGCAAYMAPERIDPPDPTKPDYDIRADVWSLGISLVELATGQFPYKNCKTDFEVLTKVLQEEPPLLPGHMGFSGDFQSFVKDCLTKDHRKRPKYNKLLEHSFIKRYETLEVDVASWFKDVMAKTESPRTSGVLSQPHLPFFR

[10] = molecular target: Serine/threonine-protein kinase DCLK2 (Homo sapiens) (UniProt Q8N568); conditions: Compound concentration 1000.0 nM
[11] = molecular target: Tyrosine-protein kinase receptor TYRO3 (Homo sapiens) (UniProt Q06418); conditions: Compound concentration 1000.0 nM
[12] = molecular target: Phosphatidylinositol 5-phosphate 4-kinase type-2 beta (Homo sapiens) (UniProt P78356); conditions: Compound concentration 1000.0 nM
[13] = molecular target: 5-hydroxytryptamine receptor 2B (Homo sapiens) (UniProt P41595); conditions: Compound concentration 10.0 uM
[14] = molecular target: Ribosomal protein S6 kinase alpha-3 (Homo sapiens) (UniProt P51812); conditions: Compound concentration 1000.0 nM
[15] = molecular target: Phosphorylase b kinase gamma catalytic chain, skeletal muscle/heart isoform (Homo sapiens) (UniProt Q16816); conditions: Compound concentration 1000.0 nM
[16] = system: Phosphatidylinositol 4,5-bisphosphate 3-kinase catalytic subunit alpha isoform (Homo sapiens), P42336 [H1047Y]; conditions: Compound concentration 1000.0 nM
[17] = molecular target: Dual specificity mitogen-activated protein kinase kinase 5 (Homo sapiens) (UniProt Q13163); conditions: Compound concentration 1000.0 nM
[18] = molecular target: BMP-2-inducible protein kinase (Homo sapiens) (UniProt Q9NSY1); conditions: Compound concentration 1000.0 nM
[19] = system: Tyrosine-protein kinase ABL1 (Homo sapiens), P00519 [E255K]; conditions: Compound concentration 1000.0 nM
[20] = molecular target: Ribosomal protein S6 kinase alpha-1 (Homo sapiens) (UniProt Q15418); conditions: Compound concentration 1000.0 nM
[21] = molecular target: Serine/threonine-protein kinase MRCK beta (Homo sapiens) (UniProt Q9Y5S2); conditions: Compound concentration 1000.0 nM
Sequence of Serine/threonine-protein kinase MRCK beta (Homo sapiens) (Q9Y5S2 whole entry): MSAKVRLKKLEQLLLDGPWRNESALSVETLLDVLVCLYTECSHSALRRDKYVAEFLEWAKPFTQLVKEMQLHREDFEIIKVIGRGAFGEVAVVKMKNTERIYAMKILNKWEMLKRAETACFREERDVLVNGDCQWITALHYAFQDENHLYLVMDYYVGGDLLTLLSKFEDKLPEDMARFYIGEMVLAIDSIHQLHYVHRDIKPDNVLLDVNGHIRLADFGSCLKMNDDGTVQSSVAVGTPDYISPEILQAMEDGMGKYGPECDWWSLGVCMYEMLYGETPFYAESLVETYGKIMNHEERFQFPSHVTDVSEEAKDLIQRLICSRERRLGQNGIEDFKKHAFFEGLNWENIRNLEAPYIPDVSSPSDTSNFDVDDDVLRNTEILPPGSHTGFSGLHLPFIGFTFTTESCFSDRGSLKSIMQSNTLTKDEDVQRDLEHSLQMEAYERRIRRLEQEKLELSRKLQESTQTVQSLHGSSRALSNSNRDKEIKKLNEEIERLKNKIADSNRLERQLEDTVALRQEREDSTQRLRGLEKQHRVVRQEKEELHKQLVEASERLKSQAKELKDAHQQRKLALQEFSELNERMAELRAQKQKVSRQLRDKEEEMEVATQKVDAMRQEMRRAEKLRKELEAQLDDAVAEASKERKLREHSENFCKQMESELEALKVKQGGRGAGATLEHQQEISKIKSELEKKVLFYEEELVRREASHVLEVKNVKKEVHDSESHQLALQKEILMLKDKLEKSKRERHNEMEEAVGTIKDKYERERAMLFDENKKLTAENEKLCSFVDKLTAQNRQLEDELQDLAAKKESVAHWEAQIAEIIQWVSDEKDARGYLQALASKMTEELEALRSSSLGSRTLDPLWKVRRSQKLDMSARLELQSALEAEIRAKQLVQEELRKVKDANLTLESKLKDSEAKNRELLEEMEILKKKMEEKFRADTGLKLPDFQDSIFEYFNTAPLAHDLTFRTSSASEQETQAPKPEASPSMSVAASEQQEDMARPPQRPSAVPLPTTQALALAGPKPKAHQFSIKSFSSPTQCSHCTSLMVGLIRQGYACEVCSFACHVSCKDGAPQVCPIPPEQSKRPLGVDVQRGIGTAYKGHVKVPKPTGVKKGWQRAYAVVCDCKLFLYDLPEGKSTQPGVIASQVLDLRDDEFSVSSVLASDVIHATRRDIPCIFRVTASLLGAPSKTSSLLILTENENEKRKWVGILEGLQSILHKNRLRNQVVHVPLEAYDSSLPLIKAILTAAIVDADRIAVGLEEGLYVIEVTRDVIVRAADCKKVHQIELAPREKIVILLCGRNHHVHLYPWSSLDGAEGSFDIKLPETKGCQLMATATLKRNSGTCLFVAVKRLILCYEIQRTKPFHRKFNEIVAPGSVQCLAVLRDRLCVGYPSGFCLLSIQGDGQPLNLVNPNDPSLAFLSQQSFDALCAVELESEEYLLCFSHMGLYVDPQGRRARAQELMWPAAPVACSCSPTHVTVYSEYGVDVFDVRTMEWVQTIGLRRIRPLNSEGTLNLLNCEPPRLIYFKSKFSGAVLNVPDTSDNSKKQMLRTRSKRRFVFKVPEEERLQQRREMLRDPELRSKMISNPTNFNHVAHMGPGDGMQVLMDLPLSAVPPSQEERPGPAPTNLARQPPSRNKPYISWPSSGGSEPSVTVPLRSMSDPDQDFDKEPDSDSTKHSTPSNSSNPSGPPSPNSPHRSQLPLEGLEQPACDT

[22] = molecular target: High affinity nerve growth factor receptor (Homo sapiens) (UniProt P04629); conditions: Compound concentration 1000.0 nM
[23] = molecular target: Serine/threonine-protein kinase WNK2 (Homo sapiens) (UniProt Q9Y3S1); conditions: Compound concentration 1000.0 nM
[24] = molecular target: Sodium-dependent dopamine transporter (Homo sapiens, UniProt Q01959); conditions: Compound concentration 10.0 uM
Sequence of Sodium-dependent dopamine transporter (Q01959 whole entry): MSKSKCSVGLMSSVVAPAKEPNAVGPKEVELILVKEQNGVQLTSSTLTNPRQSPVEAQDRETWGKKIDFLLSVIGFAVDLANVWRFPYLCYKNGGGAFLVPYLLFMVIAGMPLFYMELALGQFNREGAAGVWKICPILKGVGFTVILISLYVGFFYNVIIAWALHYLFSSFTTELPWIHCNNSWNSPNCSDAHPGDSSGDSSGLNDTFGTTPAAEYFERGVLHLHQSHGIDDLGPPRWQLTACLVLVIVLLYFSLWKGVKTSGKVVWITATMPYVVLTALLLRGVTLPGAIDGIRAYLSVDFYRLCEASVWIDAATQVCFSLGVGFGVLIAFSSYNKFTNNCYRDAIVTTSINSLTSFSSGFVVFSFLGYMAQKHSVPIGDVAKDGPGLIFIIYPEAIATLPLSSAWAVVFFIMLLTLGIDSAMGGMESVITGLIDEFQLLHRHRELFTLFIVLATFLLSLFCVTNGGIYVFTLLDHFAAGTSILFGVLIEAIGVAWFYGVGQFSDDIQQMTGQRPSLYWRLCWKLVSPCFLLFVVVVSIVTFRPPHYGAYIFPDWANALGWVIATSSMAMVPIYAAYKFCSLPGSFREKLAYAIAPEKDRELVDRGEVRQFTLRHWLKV

[25] = molecular target: Protein kinase C delta type (Homo sapiens) (UniProt Q05655); conditions: Compound concentration 1000.0 nM
[26] = system: Phosphatidylinositol 4,5-bisphosphate 3-kinase catalytic subunit alpha isoform (Homo sapiens), P42336 [I800L]; conditions: Compound concentration 1000.0 nM
[27] = molecular target: 5-hydroxytryptamine receptor 7 (Homo sapiens) (UniProt P34969); conditions: Compound concentration 10.0 uM
[28] = system: Phosphatidylinositol 4,5-bisphosphate 3-kinase catalytic subunit alpha isoform (Homo sapiens), P42336 [E545A]; conditions: Compound concentration 1000.0 nM
[29] = molecular target: Calcium/calmodulin-dependent protein kinase type II subunit beta (Homo sapiens) (UniProt Q13554); conditions: Compound concentration 1000.0 nM
[30] = molecular target: Ephrin type-B receptor 2 (Homo sapiens) (UniProt P29323); conditions: Compound concentration 1000.0 nM
[31] = molecular target: Homeodomain-interacting protein kinase 2 (Homo sapiens) (UniProt Q9H2X6); conditions: Compound concentration 1000.0 nM
[32] = molecular target: Atypical kinase COQ8B, mitochondrial (Homo sapiens) (UniProt Q96D53); conditions: Compound concentration 1000.0 nM
[33] = molecular target: Calcium/calmodulin-dependent protein kinase kinase 2 (Homo sapiens) (UniProt Q96RR4); conditions: Compound concentration 1000.0 nM
Sequence of Calcium/calmodulin-dependent protein kinase kinase 2 (Homo sapiens) (Q96RR4 2-588 limits assumed): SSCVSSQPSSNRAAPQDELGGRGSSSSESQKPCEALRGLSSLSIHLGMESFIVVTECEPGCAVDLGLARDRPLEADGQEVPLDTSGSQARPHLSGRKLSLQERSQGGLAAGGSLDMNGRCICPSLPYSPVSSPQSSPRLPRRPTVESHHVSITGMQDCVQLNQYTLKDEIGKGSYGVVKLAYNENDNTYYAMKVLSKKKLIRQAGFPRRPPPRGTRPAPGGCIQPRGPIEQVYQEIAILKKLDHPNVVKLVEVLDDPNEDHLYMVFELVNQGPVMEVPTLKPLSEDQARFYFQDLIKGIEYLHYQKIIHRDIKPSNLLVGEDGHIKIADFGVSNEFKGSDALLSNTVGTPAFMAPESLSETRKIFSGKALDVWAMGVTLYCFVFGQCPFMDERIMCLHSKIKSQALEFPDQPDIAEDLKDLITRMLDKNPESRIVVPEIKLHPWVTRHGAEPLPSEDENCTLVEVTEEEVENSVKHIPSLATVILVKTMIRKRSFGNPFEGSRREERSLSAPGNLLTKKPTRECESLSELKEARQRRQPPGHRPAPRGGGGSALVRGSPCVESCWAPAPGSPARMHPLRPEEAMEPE

[34] = molecular target: Dual specificity tyrosine-phosphorylation-regulated kinase 1B (Homo sapiens) (UniProt Q9Y463); conditions: Compound concentration 1000.0 nM
[35] = molecular target: Phosphorylase b kinase regulatory subunit alpha, liver isoform (Homo sapiens) (UniProt P46019); conditions: Compound concentration 1000.0 nM
[36] = molecular target: Serine/threonine-protein kinase TAO3 (Homo sapiens) (UniProt Q9H2K8); conditions: Compound concentration 1000.0 nM
[37] = molecular target: Rhodopsin kinase GRK7 (Homo sapiens) (UniProt Q8WTQ7); conditions: Compound concentration 1000.0 nM
[38] = molecular target: Cyclin-dependent kinase-like 1 (Homo sapiens) (UniProt Q00532); conditions: Compound concentration 1000.0 nM
Sequence of Cyclin-dependent kinase-like 1 (Homo sapiens) (Q00532 whole entry): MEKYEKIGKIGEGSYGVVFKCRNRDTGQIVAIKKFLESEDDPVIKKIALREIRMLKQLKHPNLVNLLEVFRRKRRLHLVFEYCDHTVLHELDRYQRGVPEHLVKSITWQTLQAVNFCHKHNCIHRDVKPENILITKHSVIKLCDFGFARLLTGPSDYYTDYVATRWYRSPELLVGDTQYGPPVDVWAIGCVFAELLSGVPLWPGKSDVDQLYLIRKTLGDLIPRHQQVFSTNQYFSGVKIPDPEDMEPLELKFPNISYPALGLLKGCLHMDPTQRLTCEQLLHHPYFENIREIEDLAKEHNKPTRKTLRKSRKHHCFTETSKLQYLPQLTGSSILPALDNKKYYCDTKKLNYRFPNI

[39] = molecular target: Glycogen synthase kinase-3 alpha (Homo sapiens) (UniProt P49840); conditions: Compound concentration 1000.0 nM
[40] = molecular target: Bone morphogenetic protein receptor type-1B (Homo sapiens) (UniProt O00238); conditions: Compound concentration 1000.0 nM
[41] = molecular target: Cyclin-dependent kinase 19 (Homo sapiens) (UniProt Q9BWU1); conditions: Compound concentration 1000.0 nM
[42] = molecular target: Serine/threonine-protein kinase NLK (Homo sapiens) (UniProt Q9UBE8); conditions: Compound concentration 1000.0 nM
[43] = molecular target: Receptor tyrosine-protein kinase erbB-2 (Homo sapiens) (UniProt P04626); conditions: Compound concentration 1000.0 nM
[44] = molecular target: Receptor-interacting serine/threonine-protein kinase 4 (Homo sapiens) (UniProt P57078); conditions: Compound concentration 1000.0 nM

SMILES: CC(=O)N1CCC(c2ccc(C(=O)NC3=NCCN3)cc2C(F)(F)F)CC1 [BI 0054]
- residual activity [1]: 100%
- residual activity [2]: 100%
- residual activity [3]: 100%
- residual activity [4]: 78%
- residual activity [5]: 100%
- residual activity [6]: 100%
- residual activity [7]: 100%
- residual activity [8]: 70%
- residual activity [9]: 100%
- residual activity [10]: 88%
- residual activity [11]: 89%
- residual activity [12]: 75%
- inhibition [13]: -2.75%
- residual activity [14]: 100%
- residual activity [15]: 100%
- residual activity [16]: 100%
- residual activity [17]: 92%
- residual activity [18]: 100%
- residual activity [19]: 82%
- residual activity [20]: 100%
- residual activity [21]: 100%
- residual activity [22]: 100%
- residual activity [23]: 100%
- inhibition [24]: 87.3%
- residual activity [25]: 100%
- residual activity [26]: 94%
- inhibition [27]: 3.32%
- residual activity [28]: 100%
- residual activity [29]: 88%
- residual activity [30]: 82%
- residual activity [31]: 100%
- residual activity [32]: 97%
- residual activity [33]: 100%
- residual activity [34]: 37%
- residual activity [35]: 100%
- residual activity [36]: 87%
- residual activity [37]: 87%
- residual activity [38]: 100%
- residual activity [39]: 78%
- residual activity [40]: 89%
- residual activity [41]: 100%
- residual activity [42]: 100%
- residual activity [43]: 100%
- residual activity [44]: 64%

SMILES: CC(=O)N1CCC(c2ccc(C(=O)NC(=N)N)cc2C(F)(F)F)CC1 [BI 9627]
- residual activity [1]: 100%
- residual activity [2]: 100%
- residual activity [3]: 60%
- residual activity [4]: 82%
- residual activity [5]: 0%
- residual activity [6]: 100%
- residual activity [7]: 95%
- residual activity [8]: 97%
- residual activity [9]: 86%
- residual activity [10]: 93%
- residual activity [11]: 100%
- residual activity [12]: 77%
- inhibition [13]: -8.79%
- residual activity [14]: 95%
- residual activity [15]: 100%
- residual activity [16]: 100%
- residual activity [17]: 86%
- residual activity [18]: 96%
- residual activity [19]: 100%
- residual activity [20]: 100%
- residual activity [21]: 100%
- residual activity [22]: 100%
- residual activity [23]: 98%
- inhibition [24]: 77.9%
- residual activity [25]: 100%
- residual activity [26]: 90%
- inhibition [27]: 16.3%
- residual activity [28]: 100%
- residual activity [29]: 100%
- residual activity [30]: 100%
- residual activity [31]: 100%
- residual activity [32]: 100%
- residual activity [33]: 100%
- residual activity [34]: 45%
- residual activity [35]: 100%
- residual activity [36]: 86%
- residual activity [37]: 97%
- residual activity [38]: 100%
- residual activity [39]: 97%
- residual activity [40]: 100%
- residual activity [41]: 100%
- residual activity [42]: 100%
- residual activity [43]: 92%
- residual activity [44]: 76%
